According to article PMC12064818, “A general assay platform to study protein pharmacology using ligand-dependent structural dynamics” (Nature Communications, 2025):
Where a name gives a salt, the structure may show the parent alone. Read-outs that look alike come from different tables or passages of the source. One block for each molecule: values may come before it.

Legend:
PKA-N-HiBiT = PKA-N-HiBiT (Homo sapiens, UniProt P17612); experiment: SDR assay, PKA-N-HiBiT
PKA = conditions: cited from earlier work
[1] = biological target: T1, ABL1-N-HiBiT kinase domain (Homo sapiens, UniProt P00519); experiment: SDR assay, ABL1-N-HiBiT; conditions: for ABL1 SDR pSDR50: heatmap data, 128 kinase inhibitors; for EC50: read-out: SDR Ave SDR50; for EC50 / SDR Ave pSDR50: average
T1 sequence (P00519 233-500): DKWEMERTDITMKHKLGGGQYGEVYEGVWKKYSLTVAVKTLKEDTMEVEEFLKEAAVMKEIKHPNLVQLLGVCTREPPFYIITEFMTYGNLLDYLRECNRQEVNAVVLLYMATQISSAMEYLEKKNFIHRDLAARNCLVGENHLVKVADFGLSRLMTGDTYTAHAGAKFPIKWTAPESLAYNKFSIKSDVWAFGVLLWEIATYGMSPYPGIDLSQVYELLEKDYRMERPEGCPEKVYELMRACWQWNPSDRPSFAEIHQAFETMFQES

[2] = PKA-N-HiBiT qHTS, SDR assay, average maximal response
[3] = annotation yes/no for kinase library compound, source not given
[4] = ABL1-N-HiBiT qHTS, average maximal SDR response
[5] = read-out: PKA SDR Ave SDR50, PKA-N-HiBiT qHTS, SDR assay, average
[6] = ABL1-N-HiBiT qHTS, SDR assay, average maximal response
[7] = ABL1-N-HiBiT qHTS, unit inferred

SDR Ave Max Response (PKA-N-HiBiT; [2]): -13.81
ABL1 SDR pSDR50 [1]: 5.27
SDR Ave Max Response [1, 4]: 59.57
EC50 [1, 7]: 5.74 µM
Molecule: O=C(c1cccc(Cl)c1F)N1CCN(Cc2cccc(Nc3nccs3)n2)CC1 [MK-8745]
Annotated PKA activity (PKA; [3]): no

SDR Ave Max Response (PKA-N-HiBiT; [2]): -4.54
SDR Ave Max Response [1, 4]: -23.55
Molecule: C[C@@H]1CN(CC(=O)Nc2ccc3c(c2)Cc2cccc(-c4cc(=O)cc(N5CCOCC5)o4)c2S3)C[C@H](C)O1 [KU-60019]
Annotated PKA activity (PKA; [3]): no

EC50 (PKA-N-HiBiT): 19.5 µM
SDR Ave Max Response (PKA-N-HiBiT; [2]): 35.28
EC50 (PKA-N-HiBiT; [5]): 20.8 µM
ABL1 SDR pSDR50 [1]: 4.46
SDR Ave Max Response [1, 4]: 52.23
EC50 [1, 7]: 35.5 µM
Molecule: N#Cc1cccc(-c2c[nH]c3ncnc(N4CCOCC4)c23)c1 [PF-06447475]
Annotated PKA activity (PKA; [3]): no

SDR Ave Max Response (PKA-N-HiBiT; [2]): 3.01
SDR Ave Max Response [1, 4]: 9.81
Molecule: C=CC(=O)Nc1cccc(Oc2nc(Nc3ccc(N4CCN(C)CC4)cc3OC)ncc2Cl)c1 [WZ4002]
Annotated PKA activity (PKA; [3]): no

SDR Ave Max Response (PKA-N-HiBiT; [2]): 3.65
SDR Ave Max Response [1, 6]: 5.73
Molecule: Cc1sc2c(c1C)C(c1ccc(Cl)cc1)=N[C@@H](CC(=O)Nc1ccc(OCCOCCOCCOCCNc3cccc4c3C(=O)N(C3CCC(=O)NC3=O)C4=O)cc1)c1nnc(C)n1-2 (some centres unmarked) [ARV-825]
Annotated PKA activity (PKA; [3]): no

SDR Ave Max Response (PKA-N-HiBiT; [2]): 10.58
SDR Ave Max Response [1, 4]: 21.22
Molecule: C[C@@H]1CCNC(=O)c2cc3ccc(C(=O)Nc4nc5ccccc5n4CCCN(C)C)cc3n21 [BIX-02565]
Annotated PKA activity (PKA; [3]): no

SDR Ave Max Response (PKA-N-HiBiT; [2]): 2.68
SDR Ave Max Response [1, 4]: 10.66
Molecule: COc1ccc(-n2c(C)c([N+](=O)[O-])c3ccc(O)cc32)cc1 [ID-8]
Annotated PKA activity (PKA; [3]): no

Continued, molecule first:

Molecule: COC(=O)Nc1ccc(-c2nc(N3CCOCC3)c3cnn(C4CCN(C(=O)OC)CC4)c3n2)cc1 [WYE-354]
SDR Ave Max Response (PKA-N-HiBiT; [2]): 4.88
Annotated PKA activity (PKA; [3]): no
SDR Ave Max Response [1, 4]: 1.70

Molecule: Cc1n[nH]c2ncc(C(=O)N3CCC[C@H]3c3ccc(Cl)cc3)cc12 [MSC2530818]
EC50 (PKA-N-HiBiT): 14.1 µM
SDR Ave Max Response (PKA-N-HiBiT; [2]): 40.05
EC50 (PKA-N-HiBiT; [5]): 14.5 µM
Annotated PKA activity (PKA; [3]): no
SDR Ave Max Response [1, 6]: 4.30

Molecule: CNC(=O)c1ccccc1Nc1nc(Nc2ccc(N3CCOCC3)cc2OC)ncc1Cl [NVP-TAE226]
SDR Ave Max Response (PKA-N-HiBiT; [2]): 11.43
Annotated PKA activity (PKA; [3]): no
SDR Ave Max Response [1, 4]: 60.77

Molecule: S=C(NCc1ccc2c(c1)OCO2)N1CCN(c2ncnc3c2oc2ccccc23)CC1 [Amuvatinib]
SDR Ave Max Response (PKA-N-HiBiT; [2]): -0.36
Annotated PKA activity (PKA; [3]): no
SDR Ave Max Response [1, 4]: 8.96

Molecule: Cn1sc(=O)n(Cc2ccccc2)c1=O [TDZD 8]
SDR Ave Max Response (PKA-N-HiBiT; [2]): 1.44
Annotated PKA activity (PKA; [3]): no
SDR Ave Max Response [1, 4]: -3.85

Molecule: Cc1ccc(C(=O)Nc2ccc(Oc3cc4cnn(C)c4cc3-c3cn[nH]c3)c(F)c2)c(=O)n1-c1ccc(F)cc1 [Merestinib]
SDR Ave Max Response (PKA-N-HiBiT; [2]): 8.78
Annotated PKA activity (PKA; [3]): no
SDR Ave Max Response [1, 4]: 22.76

Molecule: Nc1nc(NCCNc2ncc(-n3ccnc3)c(-c3ccc(Cl)cc3Cl)n2)ccc1[N+](=O)[O-] [CT-98014]
EC50 (PKA-N-HiBiT): 11.7 µM
SDR Ave Max Response (PKA-N-HiBiT): -28.99
EC50 (PKA-N-HiBiT; read-out: PKA SDR Ave SDR50): 12.9 µM
Annotated PKA activity (PKA): no
ABL1 SDR pSDR50 [1]: 4.54
SDR Ave Max Response [1, 4]: -28.48
EC50 [1, 7]: 33.8 µM

Molecule: CCn1nc(C2CCN(C(=O)CCO)CC2)nc1-c1cnc(N)c(-c2nnc(C(C)(C)C)o2)n1 [AZD-8835]
SDR Ave Max Response (PKA-N-HiBiT; [2]): 6.01
Annotated PKA activity (PKA; [3]): no
ABL1 SDR pSDR50 [1]: 4.80
SDR Ave Max Response [1, 6]: 63.43
EC50 ([1]; ABL1-N-HiBiT qHTS, SDR assay): 17.6 µM

Molecule: Cc1nc2ccc(-n3ncc(C(=O)c4cc5ccccc5[nH]4)c3N)cc2[nH]1 [CH-5183284]
SDR Ave Max Response (PKA-N-HiBiT; [2]): 4.01
Annotated PKA activity (PKA; [3]): no
ABL1 SDR pSDR50 [1]: 5.61
SDR Ave Max Response [1, 4]: 37.79
EC50 [1, 7]: 2.51 µM

Molecule: UK-371804
SDR Ave Max Response (PKA-N-HiBiT; [2]): 6.35
Annotated PKA activity (PKA; [3]): no
ABL1 SDR pSDR50 [1]: 4.69
SDR Ave Max Response [1, 6]: -28.31
EC50 ([1]; ABL1-N-HiBiT qHTS, SDR assay): 26.5 µM

Molecule: O=C(NCCCNc1nc(Nc2ccc(N3CCOCC3)cc2)ncc1C1CC1)C1CCC1 [MRT-68601 HCl]
SDR Ave Max Response (PKA-N-HiBiT; [2]): 1.65
Annotated PKA activity (PKA; [3]): no
SDR Ave Max Response [1, 6]: -7.81

Molecule: Cc1ccc(NC(=O)N2CCN(c3nc(N)nc4sc(-c5cccnc5)nc34)CC2)cc1 [PI4KIII beta inhibitor 3]
SDR Ave Max Response (PKA-N-HiBiT; [2]): 3.67
Annotated PKA activity (PKA; [3]): no
SDR Ave pSDR50 ([1]; ABL1-N-HiBiT qHTS): 4.83
SDR Ave Max Response [1, 4]: 18.89
EC50 [1, 7]: 14.9 µM

Molecule: N#Cc1ccc2ncnc(NCCc3ccccc3)c2c1 [Senexin A]
SDR Ave Max Response (PKA-N-HiBiT; [2]): -4.85
Annotated PKA activity (PKA; [3]): no
SDR Ave Max Response [1, 4]: -0.36

Molecule: COc1ccc(-n2c(SCC#N)nc3sc4c(c3c2=O)CCCC4)cc1 [Necrostatin-5]
SDR Ave Max Response (PKA-N-HiBiT; [2]): 1.51
Annotated PKA activity (PKA; [3]): no
SDR Ave Max Response [1]: -3.84

Molecule: Cc1cccc(/C=N/Nc2cc(N3CCOCC3)nc(OCCc3ccccn3)n2)c1 [Apilimod]
SDR Ave Max Response (PKA-N-HiBiT; [2]): -3.80
Annotated PKA activity (PKA; [3]): no
SDR Ave Max Response [1, 4]: 7.50

Molecule: O=C1CCC(N2C(=O)c3ccccc3C2=O)C(=O)N1 (centres unmarked) [Thalidomide]
SDR Ave Max Response (PKA-N-HiBiT; [2]): -13.01
Annotated PKA activity (PKA; [3]): no
SDR Ave Max Response [1, 4]: -2.59

Molecule: CO[C@H]1/C=C/O[C@@]2(C)Oc3c(C)c(O)c4c(O)c(c(/C=N\N5CCN(C6CCCC6)CC5)c(O)c4c3C2=O)NC(=O)C(C)=C/C=C/[C@H](C)[C@H](O)[C@@H](C)[C@@H](O)[C@@H](C)[C@H](OC(C)=O)[C@@H]1C [Rifapentin]
SDR Ave Max Response (PKA-N-HiBiT; [2]): -45.77
EC50 (PKA-N-HiBiT; [5]): 17.1 µM
Annotated PKA activity (PKA; [3]): no
ABL1 SDR pSDR50 [1]: 4.28
SDR Ave Max Response [1, 4]: -34.67

Molecule: Mps1-IN-3
SDR Ave Max Response (PKA-N-HiBiT; [2]): 14.72
Annotated PKA activity (PKA; [3]): no
ABL1 SDR pSDR50 [1]: 4.80
SDR Ave Max Response [1, 4]: 66.03

Molecule: COc1ccc2c(Oc3ccc(NC(=O)c4c(C)n(CC(C)(C)O)n(-c5ccccc5)c4=O)nc3)ccnc2c1 [AMG-458]
EC50 (PKA-N-HiBiT): 10.7 µM
SDR Ave Max Response (PKA-N-HiBiT): -17.61
EC50 (PKA-N-HiBiT; read-out: PKA SDR Ave SDR50): 10.7 µM
Annotated PKA activity (PKA; [3]): yes
SDR Ave Max Response [1, 4]: 38.29

Molecule: COc1ccc(CNC(=O)Nc2ncc([N+](=O)[O-])s2)cc1 [AR-A014418]
SDR Ave Max Response (PKA-N-HiBiT; [2]): -0.25
Annotated PKA activity (PKA; [3]): no
SDR Ave Max Response [1, 4]: -7.75

Molecule: PLX-4720
SDR Ave Max Response (PKA-N-HiBiT; [2]): 5.33
Annotated PKA activity (PKA; [3]): no
ABL1 SDR pSDR50 [1]: 4.63
SDR Ave Max Response [1, 4]: 37.18
EC50 [1, 7]: 24.5 µM

Molecule: CC1(C)OCCn2c1nc1c(N3CCOCC3)nc(-c3cnc(N)nc3)nc12 [GDC-0084]
SDR Ave Max Response (PKA-N-HiBiT; [2]): 3.97
Annotated PKA activity (PKA; [3]): no
ABL1 SDR pSDR50 [1]: 5.16
SDR Ave Max Response [1, 6]: 58.32
EC50 ([1]; ABL1-N-HiBiT qHTS, SDR assay): 7.07 µM

Molecule: Cc1ccccc1-n1c([C@H](C)Nc2nc(N)nc3[nH]cnc23)nc2cccc(C)c2c1=O [CAL-130 Hydrochloride]
SDR Ave Max Response (PKA-N-HiBiT; [2]): 2.85
Annotated PKA activity (PKA; [3]): no
SDR Ave pSDR50 ([1]; ABL1-N-HiBiT qHTS): 5.40
SDR Ave Max Response [1, 4]: -18.17
EC50 [1, 7]: 4.04 µM

Molecule: CC(C)CCN1c2nc(Nc3cc(F)c(O)c(F)c3)ncc2N(C)C(=O)C1C (centres unmarked) [BI-D1870]
SDR Ave Max Response (PKA-N-HiBiT; [2]): -9.75
Annotated PKA activity (PKA; [3]): no
ABL1 SDR pSDR50 [1]: 5.36
SDR Ave Max Response [1, 6]: -47.47
EC50 ([1]; ABL1-N-HiBiT qHTS, SDR assay): 4.72 µM

Molecule: O=C(Nc1ccc(OC(F)(F)F)cc1)c1sccc1NCc1ccnc2ccccc12 [OSI-930]
SDR Ave Max Response (PKA-N-HiBiT; [2]): 9.10
Annotated PKA activity (PKA; [3]): no
ABL1 SDR pSDR50 [1]: 5.04
SDR Ave Max Response [1, 4]: 17.46
EC50 [1, 7]: 9.38 µM
